Assay results taken from ChEMBL document CHEMBL1201862, “PubChem BioAssay data set” (2004).
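Dose response: 5 concentrations. Exposure: 48 h. Format: 96-well plates. Endpoint: linear interpolation; highest concentration if not reached. GI50: concentration for 50% inhibition of growth.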 The source made the active and inactive calls. No stated cut-off is given here; in the data, active = GI50 up to about 1.1 µM and inactive = higher.

Key:
Assay in all cases: NCI tumour cell line growth inhibition, 48 h
A549 = tested on: A549
K562 = tested on: K562
NCI-H226 = tested on: NCI-H226
MDA-MB-435 = tested on: MDA-MB-435
SNB-19 = tested on: SNB-19
SF-268 = tested on: SF-268
CAKI-1 = tested on: CAKI-1
U-251 = tested on: U-251
MDA-MB-231 = tested on: MDA-MB-231
SW-620 = tested on: SW-620
SF-539 = tested on: SF-539
HL-60 = tested on: HL-60
BT-549 = tested on: BT-549
HOP-92 = tested on: HOP-92
NCI-H23 = tested on: NCI-H23
T47D = tested on: T47D
RXF 393 = tested on: RXF 393
Hs-578T = tested on: Hs-578T
OVCAR-8 = tested on: OVCAR-8
SNB-75 = tested on: SNB-75

Structure (SMILES) | GI50 (A549) | GI50 (K562) | GI50 (NCI-H226) | GI50 (MDA-MB-435) | GI50 (SNB-19) | GI50 (SF-268) | GI50 (CAKI-1) | GI50 (U-251) | GI50 (MDA-MB-231) | GI50 (SW-620) | GI50 (SF-539) | GI50 (HL-60) | GI50 (BT-549) | GI50 (HOP-92) | GI50 (NCI-H23) | GI50 (T47D) | GI50 (RXF 393) | GI50 (Hs-578T) | GI50 (OVCAR-8) | GI50 (SNB-75)
Cc1cc2nc3c(C#N)c4c(c(-c5ccc(Cl)cc5)n3c2cc1C)CCC4 | 34.5 µM (inactive) | 23.1 µM (inactive) | 21.1 µM (inactive) | 22.5 µM (inactive) | 20.8 µM (inactive) | 24.3 µM (inactive) | 19.4 µM (inactive) | 28.8 µM (inactive) | 22.2 µM (inactive) | 30.4 µM (inactive) | 29.2 µM (inactive) | 21.4 µM (inactive) | 20.4 µM (inactive) | 20.3 µM (inactive) | 19.1 µM (inactive) | 22.3 µM (inactive) | 45 µM (inactive) | 25.1 µM (inactive) |  | 
O=C(O)CCCCn1cnc2c(S)ncnc21 | > 100 µM (inactive) | > 100 µM (inactive) | > 100 µM (inactive) | > 100 µM (inactive) | > 100 µM (inactive) | > 100 µM (inactive) | > 100 µM (inactive) | > 100 µM (inactive) | > 100 µM (inactive) | > 100 µM (inactive) | > 100 µM (inactive) |  | > 100 µM (inactive) | > 100 µM (inactive) | > 100 µM (inactive) | > 100 µM (inactive) | > 100 µM (inactive) | > 100 µM (inactive) | > 100 µM (inactive) | > 100 µM (inactive)
COc1ccc(/C=c2\c(=O)[nH]c3nc4ccccc4c(=O)n23)cc1 | 91.4 µM (inactive) |  | 74.6 µM (inactive) | 51.2 µM (inactive) | > 100 µM (inactive) | > 100 µM (inactive) | 55.8 µM (inactive) | > 100 µM (inactive) | > 100 µM (inactive) | 36.1 µM (inactive) | 46.5 µM (inactive) | 36.2 µM (inactive) | 27.3 µM (inactive) | 64.7 µM (inactive) | 73.8 µM (inactive) | 36.5 µM (inactive) | 46.1 µM (inactive) | > 100 µM (inactive) | > 100 µM (inactive) | 32.5 µM (inactive)
COc1ccc(-c2c(=O)[nH]n3c(=S)[nH]c(-c4ccccc4)nc23)cc1OC | 31.7 µM (inactive) | 12.9 µM (inactive) | 19.2 µM (inactive) | 18.9 µM (inactive) | 15 µM (inactive) | 19.4 µM (inactive) | 24.3 µM (inactive) | 17.5 µM (inactive) | 28.6 µM (inactive) | 30.1 µM (inactive) |  | 18 µM (inactive) | 17.4 µM (inactive) | 17.7 µM (inactive) | 21.3 µM (inactive) | 20.2 µM (inactive) | 17.7 µM (inactive) | 29.7 µM (inactive) | 20.8 µM (inactive) | 24.5 µM (inactive)
O=C1OC(C2OC(=O)c3cc(O)c(O)c(O)c3-c3c(O)c(O)c4oc(=O)c5c(c(O)c(O)c6oc(=O)c3c4c65)-c3c(cc(O)c(O)c3O)C(=O)OCC2O)C2OC(=O)c3c(c(O)c(O)c(O)c3[C@H]2O)-c2c1cc(O)c(O)c2O (stereo not given in full) | 20.2 µM (inactive) | 19.2 µM (inactive) | 16.8 µM (inactive) | 14 µM (inactive) | 96.8 µM (inactive) | 24.7 µM (inactive) | 10.3 µM (inactive) | 20.9 µM (inactive) | 13.5 µM (inactive) | 19 µM (inactive) |  | 13.7 µM (inactive) | 24 µM (inactive) | 18.3 µM (inactive) | 16.6 µM (inactive) | 26.7 µM (inactive) | 26.5 µM (inactive) | 38.6 µM (inactive) | 20.2 µM (inactive) | 16.9 µM (inactive)
CC(C)(Cc1ccccc1)NC1=NCCO1 | > 100 µM (inactive) | > 100 µM (inactive) | > 100 µM (inactive) | > 100 µM (inactive) | > 100 µM (inactive) |  | > 100 µM (inactive) | > 100 µM (inactive) | > 100 µM (inactive) | > 100 µM (inactive) | > 100 µM (inactive) | > 100 µM (inactive) | > 100 µM (inactive) | > 100 µM (inactive) | > 100 µM (inactive) | > 10 µM (inactive) | > 100 µM (inactive) | 76.4 µM (inactive) | > 100 µM (inactive) | 35.2 µM (inactive)
Cc1cn(C2CC(N=[N+]=[N-])C(COP(=O)(O)OCC3OC(n4cc(F)c(=O)[nH]c4=O)CC3O)O2)c(=O)[nH]c1=O (stereo not given) | 0.368 µM (active) |  | > 100 µM (inactive) | 16 µM (inactive) | > 31.6 µM (inactive) | 0.442 µM (active) | 1.32 µM (inactive) | > 25.5 µM (inactive) | > 100 µM (inactive) | 4.56 µM (inactive) | 0.0438 µM (active) | 9.1 µM (inactive) | > 100 µM (inactive) | 1.11 µM (active) | 4.05 µM (inactive) | > 100 µM (inactive) | > 100 µM (inactive) | > 100 µM (inactive) | 5.94 µM (inactive) | 9.06 µM (inactive)
C/C(=N\NC(=S)N/N=C(\C)c1ccccn1)c1ccccn1 | 2.18 µM (inactive) | 1.92 µM (inactive) | 0.738 µM (active) | 6.9 µM (inactive) | 3.56 µM (inactive) | 0.817 µM (active) | 1.41 µM (inactive) | 0.771 µM (active) | 21.5 µM (inactive) | 1.75 µM (inactive) | 0.979 µM (active) | > 100 µM (inactive) | 5.22 µM (inactive) | 2.82 µM (inactive) | 4.6 µM (inactive) | 6.31 µM (inactive) |  | 31.8 µM (inactive) | 1.05 µM (active) | 5.93 µM (inactive)
FC(F)(F)c1ccc2c(c1)nc(-c1ccc(Cl)cc1)n2CC1CCCN2CCCCC12 (stereo not given) | 14.8 µM (inactive) |  | 14.8 µM (inactive) | 16.9 µM (inactive) | 17.1 µM (inactive) | 14 µM (inactive) | 17.1 µM (inactive) | 14.2 µM (inactive) | 7.33 µM (inactive) | 18.5 µM (inactive) | 14.8 µM (inactive) | 11.8 µM (inactive) | 14.4 µM (inactive) | 12.8 µM (inactive) |  | 16.7 µM (inactive) | 13.9 µM (inactive) | 14 µM (inactive) | 15.6 µM (inactive) | 6.84 µM (inactive)
CC(=O)Nc1ccc(/N=N\c2c(O)c(S(=O)(=O)O)cc3cc(S(=O)(=O)O)ccc23)cc1 | > 100 µM (inactive) | > 100 µM (inactive) | > 100 µM (inactive) | > 100 µM (inactive) | > 100 µM (inactive) | > 100 µM (inactive) | > 100 µM (inactive) | > 100 µM (inactive) | > 100 µM (inactive) | > 100 µM (inactive) |  |  | > 100 µM (inactive) | > 100 µM (inactive) | > 100 µM (inactive) | > 100 µM (inactive) | > 100 µM (inactive) | > 100 µM (inactive) | > 100 µM (inactive) | > 100 µM (inactive)
O=C(O)CCC(=O)c1ccc[nH]1 | > 100 µM (inactive) | > 100 µM (inactive) | 64 µM (inactive) | > 100 µM (inactive) | > 100 µM (inactive) | > 100 µM (inactive) | > 100 µM (inactive) | > 100 µM (inactive) | > 100 µM (inactive) |  | > 100 µM (inactive) |  | > 100 µM (inactive) | > 100 µM (inactive) | > 100 µM (inactive) | > 100 µM (inactive) | > 100 µM (inactive) | > 100 µM (inactive) | > 100 µM (inactive) | > 100 µM (inactive)
